Data: article PMC6238005, “Sigma-2 Receptor/TMEM97 and PGRMC-1 Increase the Rate of Internalization of LDL by LDL Receptor through the Formation of a Ternary Complex” (Scientific Reports, 2018)
Read-outs that look alike come from different tables or passages of the source.

What was measured:
[1] = molecular target: T1, σ2R (Homo sapiens, UniProt Q5BJF2); assay: Saturation binding on control (Scramble/Cas9) HeLa cell membranes
T1 construct: endogenous in cells; host or cells: HeLa control clone (non-specific CRISPR/Cas9 plasmid plus lentiCas9-Blast), membrane preparation
T1 sequence (Q5BJF2 whole entry): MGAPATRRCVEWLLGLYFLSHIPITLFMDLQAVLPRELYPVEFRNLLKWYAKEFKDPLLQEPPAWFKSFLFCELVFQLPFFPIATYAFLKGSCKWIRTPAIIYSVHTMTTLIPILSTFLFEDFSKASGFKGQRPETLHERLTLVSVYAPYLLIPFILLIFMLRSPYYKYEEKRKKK
Method: (§1) For the cell membrane preparation for receptor binding, the cell pellets were taken out from the freezer, rinsed with 10 mL ice-cold PBS solution, and homogenized by using Wheaton overhead stirrer (120 Vac Overhead Stirrer, Millville, NJ, USA) at the speed of 2 for 30 sec. Then the cell solution was transferred to a 50 mL conical tube and centrifuged for 20 min at 31,000 × g, 4 °C. After centrifugation, the supernatant was discarded and the pellets were resuspended in 1 mL ice-cold PBS solution and stored at −80 °C freezer.
(§2) After incubation, the bound ligands were collected with a M-24 Brandel filtration system (Brandel, Gaithersburg, MD, USA) on the glass fiber papers (Whatman grade 934-AH, GE Healthcare Bio-Sciences, Pittsburgh, PA), and counted with a MicroBeta[2] Microplate counter 2450 or Wizard2 Automatic Gamma Counter 2470. All the Kd and Bmax values were calculated from a nonlinear regression method with Prism, and the protein concentrations were determined by the method of Lowry et al.[4] with BSA as a standard.

[2] = system: residual DTG binding site; assay: Saturation binding on TMEM97 KO HeLa cell membranes; details: for binding to TMEM97 KO HeLa cells: TMEM97 KO versus control, all three guide RNA sequences; for Kd: TMEM97 KO/Cas9 HeLa cell membranes, saturation binding, N.B. = no binding
Method: as §1, §2

[3] = system: residual DTG binding site; assay: Saturation binding on TMEM97/PGRMC1 double KO HeLa cell membranes; details: Double KO/Cas9 HeLa cell membranes, N.B. = no binding
Method: as §1, §2

[4] = molecular target: T1, σ2R; assay: Saturation binding on PGRMC1 KO HeLa cell membranes; details: PGRMC1 KO/Cas9 HeLa cell membranes
Method: as §1, §2

[5] = molecular target: T1, σ2R; details: cited from earlier work; for Kd: no reference given
[6] = system: HeLa cells; assay: Radiolabeled LDL uptake assay; assay type: cell-based; details: control HeLa cells, ligands 1 nM - 500 nM
Method: Radiolabeled LDL was prepared by incubating human LDL (50 μg/mL) (LP2, Millipore) with [^3H]cholesterol (final concentration 3 μCi/mL) in serum-free MEM for 24 hours at 37 °C, filtered using a 0.2 μm filter, and used immediately. Care was taken not to vortex LDL to avoid aggregation of particles.
Cells were plated on 6-well plates (1 × 10^5 cells per well) or for 96-well plates (1 × 10^4 cells per well) in MEM with 10% FBS, 100 I.U./ml penicillin, 100 µg/ml streptomycin, 2mM L-glutamine, and 1X MEM non-essential amino acids. After 24 hours, media was removed and cells were incubated with MEM containing 10% lipoprotein-depleted serum (LPDS) (AAJ65182AMG, Fisher Scientific) for an additional 24 hours. […] Cells were washed 3 times in PBS, incubated with scintillation fluid overnight, and counts per minute (cpm) were determined using a scintillation counter MicroBeta[2] Microplate counter 2450.

[7] = control (Cas9) HeLa cell membranes, Supplementary Figure 2, duplicates, n=3
[8] = σ2R, ligands previously described, read-out: Kd

In the case of COc1cc2c(cc1OC)CN(CCCCNC(=O)c1cc([125I])cc(OC)c1OC)CC2 [[^125I]RHM-4, [^125I]N-(4-(6,7-dimethoxy-3,4-dihydroisoquinolin-2(1 H)-yl)butyl)-2,3-dimethoxy-5-iodo-benzamide], the Bmax ([1]; Scramble/Cas9 control HeLa cell membranes) is reported as 2545 ± 37 fmol/mg, the Bmax [1, 7] is reported as 2234.0 fmol/mg and the “binding to TMEM97 KO HeLa cells” value [2] is reported as “complete reduction in binding”. For the same compound, the Kd [2] was “N.B”, the Kd [3] was “N.B” and the Bmax [4] was 2475 ± 51 fmol/mg.

In the case of Cc1ccccc1N=C(N)Nc1ccccc1C [[^3H]DTG], the “binding to TMEM97 KO HeLa cells” value [2] is reported as “large, but incomplete, reduction”, the Kd ([2]; read-out: Kd) is reported as 302 ± 80.2 nM and the Kd ([3]; read-out: Kd) is reported as 403 ± 110 nM.

COc1cc2c(cc1OC)CN(CCCCNC(=O)c1cc(I)cc(OC)c1OC)CC2 [[^125I]RHM-4, [^125I]N-(4-(6,7-dimethoxy-3,4-dihydroisoquinolin-2(1 H)-yl)butyl)-2,3-dimethoxy-5-iodo-benzamide] gave a Kd ([1]; Scramble/Cas9 control HeLa cell membranes, saturation binding, 1 μM (+)-pentazocine to mask σ1R for [3H]DTG) of 0.88 ± 0.04 nM, a Kd [1, 7] of 1.1 ± 0.2 nM and a Kd ([4]; saturation binding) of 2.66 ± 0.12 nM.

In the case of COc1cc2c(cc1OC)CN(CCCCNC(=O)c1cc(I)cc(OC)c1OC)CC2 [RHM-4, N-(4-(6,7-dimethoxy-3,4-dihydroisoquinolin-2(1H)-yl)butyl)-2,3-dimethoxy-5-iodo-benzamide], the Kd [5, 8] is listed as roughly 0.2 nM and the “effect on uptake of LDL labeled with [3H]cholesterol” value [6] is listed as “blocking the uptake of LDL”.

For COc1ccc(C)cc1NC(=O)OC1CC2CCCC(C1)N2CCCCCCCCCCN (stereo not drawn) [SW43], the Kd [5, 8] is given as roughly 12 nM.

For Cc1ccc2c(c1)[C@H]1CN(C)CC[C@H]1N2C(=O)CSc1nnnn1-c1ccc(Cl)cc1 [AG-205], the Kd ([5]; against σ2R, read-out: Kd against σ2R) is given as roughly 1000 nM and the Ki ([5]; displacing DTG, no unit and reference not given) is given as roughly 1260 nM.

For COc1cc2c(cc1OC)CN(CCCCNC(=O)c1cc(C)ccc1OC)CC2 [RHM-1], the Kd [5, 8] is listed as roughly 0.66 nM.
